Key:
βTC3 cells = test: TNF-α mediated apoptosis of β-gal transfected βTC3 cells (percentage of viable cells); assay type: cell-based, murine
Experimental: The murine insulinoma cell line βTC3 (DSMZ, Braunschweig, Germany) was cultured in Dulbecco's Modified Eagle's Medium (DMEM) (Life Technologies, Grand Island, N.Y., USA) supplemented with 2 mM L-glutamine, 100 U/ml penicillin G, 100 U/ml streptomycin and 10% Fetal Calf Serum (FCS) (Life Technologies) and incubated in humidified 5% CO2/95% air at 37° C. This murine β-cell line, derived from transgenic mice carrying a hybrid insulin-promoter simian virus 40 tumor antigen, is known to maintain the features of differentiated β-cells for about 50 passages in culture. […] Compared to other frequently used transformed β-cell lines such as RIN-m5F and HIT, levels of secreted insulin are closer to normal β-cells in the βTC3 cell line. Thus, these cells are useful for studying β-cell regulation and gene expression (D'Ambra et al., Endocrinology 726:2815–22, 1990).
βTC3 were seeded at 3×10^5 cells in 16 mm wells and transfected 15 to 20 hours later using Lipofectamine plus™ reagents (Life Technologies) according to the manufacturer's instructions. Total DNA was maintained constant using empty pcDNA3 vector. The percentage of viable cells was assessed by normalizing the percentage of viable cells of each DNA preparation to the number of control-transfected cells without the apoptotic stimulus (100% viability) (Soares et al., Nature Med. 4:1073–1077, 1998; Sato et al., J. Immunol. 166:4185–4194, 2001).
Murine recombinant TNF-α (R&D Systems) was dissolved in PBS with 1% bovine serum albumin and added to the culture medium (17.5 ng/ml=500 U) 24 hours after transfection. The caspase-3 inhibitor Z-DEVD-FMK and the caspase-8 inhibitor IETD-CHO (Calbiochem, San Diego, Calif.) were dissolved in dimethyl sulphoxide (DMSO, Sigma) and added to the culture medium (10 μM and 1 μM respectively) two hours before treatment with TNF-α. Tin protoporphyrin (SnPPIX) (Porphyrin Products, Logan, Utah) was dissolved (10 mM) in 100 mM NaOH and added 6 hours after transfection to the culture medium (50 μM). The guanylyl cyclase inhibitor 1H[1,2,4]oxadiazolo[4,3-α]quinoxalin-1 (ODQ; Calbiochem) was dissolved in DMSO and added to the culture medium (100 μM) 6 hours after transfection. The cGMP analogue 8-bromoguanosine-3′-5′-cyclic-monophosphate (8-Br-cGMP) (Sigma) was dissolved in water and added to the culture medium (10 μM) 30 minutes before induction of apoptosis. The protein kinase G inhibitor KT5823 (Calbiochem) was dissolved in DMSO and added to the culture medium (1.6 μM) 6 hours after transfection.
Cells and islets were exposed to 1% carbon monoxide in compressed air balanced with 5% CO2, as described elsewhere (see, e.g., Otterbein et al., Nature Med. 6:422–428, 2000). Islets were incubated in RPMI medium pre-saturated with carbon monoxide (4° C. overnight, 1% CO, 5% CO2) for two hours at 37° C. while treatment with 1% CO, 5% CO2 was continued.

[1] = test system: mouse hearts transplanted into rats; test: Mouse-to-rat heterotopic cardiac transplant, graft survival; assay type: in vivo, BALB/c mouse hearts, Lewis rats; conditions: for graft outcome: mouse hearts into rats, FePPIX with CVF plus CsA, CO 400 ppm in SnPPIX-treated rats
Text: BALB/c mouse hearts were used as donor organs for transplantation into inbred adult male Lewis rats (Harlan Sprague-Dawley, Indianapolis, Ind.). Animals were housed in accordance with guidelines from the American Association for Laboratory Animal Care, and research protocols were approved by the Institutional Animal Care and Use Committees of the Beth Israel Deaconess Medical Center.
Animals were anesthetized by a combination of methoxyflurane (Pitman-Moore, Mundelain, Ill.) inhalation and pentobarbital (Abbott, North Chicago, Ill.) at a dose of 30–50 mg/kg i.p. during all procedures. Heterotopic cardiac transplants were performed as described previously (Berk et al., Physiol Rev. 8:999–1030, 2001; Petkova et al., J Biol. Chem. 276:7932–7936, 2001). Graft survival was assessed daily by palpation. Rejection was diagnosed by cessation of ventricular contractions and confirmed by histologic examination.
Cobra venom factor (CVF; which blocks complement activation) (Quidel, San Diego, Calif.) was administered i.p. on day −1 (60 U/kg) and on day 0 (20 U/kg) with respect to the day of transplantation (day 0). Cyclosporin A (CsA; Novartis, Basel, Switzerland), which blocks T cell activation, was administered i.m. (15 mg/kg) starting at day 0 and daily thereafter until the end of each experiment. Tin protoporphyrin (SnPPIX), cobalt protoporphyrin (CoP-PIX), and iron protoporphyrin (FePPIX; Porphyrin Products, Logan, Utah) were diluted in 100 mM NaOH to a stock solution of 50 mM and kept at −70° C. until used. Light exposure was limited as much as possible. Both SnPPIX and FePPIX were administered i.p. (30 μM/kg) in PBS. FePPIX and SnPPIX were administered to the donor at days −2 and −1 (30 μM/kg) and to the recipient at the time of transplantation (day 0) and daily thereafter (30 μM/kg).
Briefly, CO at a concentration of 1% (10,000 parts per million; ppm) in compressed air was mixed with balanced air (21% oxygen) in a stainless steel mixing cylinder before entering the exposure chamber. CO concentrations were controlled by varying the flow rates of CO in a mixing cylinder before delivery to the chamber. Because the flow rate is primarily determined by the O2 flow, only the CO flow was changed to deliver the final concentration to the exposure chamber. A CO analyzer (Interscan Corporation, Chatsworth, Calif.) was used to measure CO levels continuously in the chamber. Graft donors were placed in the CO exposure chamber 2 days before transplantation. Graft recipients were placed in the exposure chamber immediately following transplantation and were kept in the exposure chamber for 14 (n=3) or 16 (n=3) days. CO concentration was maintained between 250 and 400 ppm at all times. Animals were removed daily from the chamber to assess graft survival and to administer CsA, SnPPIX, or FePPIX, as described above.

`Nc1nc2c(nc(Br)n2[C@@H]2O[C@@H]3COP(=O)(O)O[C@H]3[C@H]2O)c(=O)[nH]1` [8-Br-cGMP, 8-bromoguanosine-3′-5′-cyclic-monophosphate] was tested, and the “effect on βTC3 apoptosis” value (βTC3 cells; TNF-α, 8-Br-cGMP 10 μM, no CO) was “suppressed βTC3 apoptosis to an extent similar to that seen with carbon monoxide”.

With `[C-]#[O+]` [CO, carbon monoxide] the “effect on β-cell apoptosis induced by etoposide or serum starvation” value (βTC3 cells; 1% CO) was “suppressed”, the “effect on β-cell apoptosis, CO exposure immediately after TNF-α” value (βTC3 cells; 1% CO for one hour, tested 24 hours later) was “sufficient to prevent β-cell apoptosis” and the “effect on β-cell apoptosis, CO exposure after induction of apoptosis” value (βTC3 cells; 1% CO for one hour, two hours after TNF-α stimulation) was “still able to suppress β-cell apoptosis”. The “effect on TNF-α mediated apoptosis” value (βTC3 cells; 1% CO, action of HO-1 suppressed by SnPPIX) was “suppressed TNF-α mediated apoptosis to a similar extent as HO-1”, the “effect on β-cell apoptosis, pre-incubation with CO” value (βTC3 cells; one hour pre-incubation, TNF-α two to three hours after end of CO treatment) was “prevented β-cell apoptosis” and the “dose of CO used as fraction of the lethal dose” value ([1]; 400–500 ppm) was “approximately one-twentieth”. The “graft outcome” value [1] was “survived long term”, the untoward reactions ([1]; rats and mice exposed to CO) was “did not exhibit untoward reactions” and the “time grafts continued to function” value ([1]; rats treated with SnPPIX, CO 400 ppm discontinued 14 or 16 days after transplantation) was over 50 days.

In the case of `C=CC1=C(C)c2cc3[n-]c(cc4[n-]c(cc5nc(cc1n2)C(C)=C5C=C)c(C)c4CCC(=O)O)c(CCC(=O)O)c3C.[Fe+2]` [FePPIX, iron protoporphyrin], the “graft outcome” value [1] was “did not lead to graft rejection”.

In the case of `O=c1onc2cnc3ccccc3n12` [ODQ, 1H[1,2,4]oxadiazolo[4,3-α]quinoxalin-1], the “effect on the anti-apoptotic effect of exogenous CO” value (βTC3 cells; TNF-α, 1% CO, ODQ 100 μM, KT5823 1.6 μM) was “suppressed the anti-apoptotic effect of CO”.

With `C=Cc1c2[n-]c(c1C)/C=c1\[n-]/c(c(C)c1C=C)=C\c1[n-]c(c(CCC(=O)O)c1C)C=c1[n-]/c(c(C)c1CCC(=O)O)=C\2.[Sn+4]` [SnPPIX, tin protoporphyrin IX] the “anti-apoptotic effect of HO-1 over-expression when HO-1 activity was blocked” value (βTC3 cells; TNF-α, SnPPIX 50 μM) was “the anti-apoptotic effect was suppressed” and the “time to graft rejection after transplantation” value ([1]; SnPPIX to donor and recipient, despite CVF plus CsA) was 3 to 7 days.

Reference: US7238469B2, “Carbon monoxide improves outcomes in tissue and organ transplants and suppresses apoptosis” (priority 2001, dated 2007)
